{"source": "patent US20170326249A1", "about": "“ANTIBODY-DRUG CONJUGATE OF AN ANTI-GLYPICAN-3 ANTIBODY AND A TUBULYSIN ANALOG, PREPARATION AND USES” (Bristol-Myers Squibb Company, priority 2016, published 2017)", "format_in_all_cases": "cell-based", "key": {"[1]": {"tested_on": "Hep3B hepatocellular carcinoma cells", "assay": "3H thymidine incorporation proliferation assay, Hep3B", "settings": "Homo sapiens, 72 h", "method": "(§1) The human tumor cell lines were obtained from the American Type Culture Collection (ATCC), P.O. Box 1549, Manassas, Va. 20108, USA, and cultured according to instructions from ATCC. Cells were seeded at 1.0×10^4 cells/well in 96-well plates. […] Plates were allowed to incubate for 72 h. The plates were pulsed with 1.0 μCi of ^3H-thymidine per well for the last 24 hours of the total incubation period, harvested, and read on a Top Count Scintillation Counter (Packard Instruments, Meriden, Conn.). The EC50 values—the ADC concentration at which cell proliferation was reduced by 50%—were determined using PRISM™ software, version 4.0 (GraphPad Software, La Jolla, Calif., USA)."}, "[2]": {"tested_on": "HepG2 hepatocellular carcinoma cell line", "assay": "3H thymidine incorporation proliferation assay, HepG2", "settings": "Homo sapiens; HepG2, Table 1", "method": "as §1\n(§2) The EC50 so values, along with those against HepG2 and HuH7D12 hepatocellular carcinoma cell lines, are shown in Table 1, plus data for the drug alone (formula (II)). […] That is, release of the drug from the conjugate is efficient."}, "[3]": {"tested_on": "HuH7D12 hepatocellular carcinoma cell line", "assay": "3H thymidine incorporation proliferation assay, HuH7D12", "settings": "Homo sapiens, Huh-7D12; HuH7D12, Table 1", "method": "as §1, §2"}, "[4]": {"tested_on": "H446 small-cell lung cancer cells", "assay": "3H thymidine incorporation proliferation assay, H446", "settings": "Homo sapiens, NCI-H446, 72 h", "method": "as §1"}}}
{"smiles": "CCCN(C(=O)[C@@H](NC(=O)[C@H]1CCCCN1C)[C@@H](C)CC)[C@H](C[C@@H](OC(C)=O)c1nc(C(=O)N[C@@H](Cc2ccc(N)cc2)C[C@H](C)C(=O)O)cs1)C(C)C", "note": "[Unconjugated Drug (II)]", "values": [{"measurement": "EC50", "setting": "[1]", "value": 0.2, "unit": "nM"}, {"measurement": "EC50", "setting": "[2]", "value": 0.3, "unit": "nM"}, {"measurement": "EC50", "setting": "[3]", "value": 0.2, "unit": "nM"}, {"measurement": "EC50", "setting": "[4]", "value": 0.2, "unit": "nM"}]}
